Values belong to the compound of their own block, whether it stands above or below them.
How the values were obtained:
[1] = set-up: method as in PMID 24211079; conditions: cited from earlier work
[2] = cited from earlier work
From the text: The primary obstacle in the current management of kidney disease lies in the inadequate drug concentration within the kidney. This limitation is particularly evident in the case of ADPKD, where the only FDA-approved treatment, tolvaptan, achieves ∼5.7% accumulation in the kidney after oral administration ([62]). Similarly, in our study, ∼4.5% of free metformin accumulated in the kidney. Given the pronounced deficiency in kidney bioavailability observed with free drugs, our innovative oral kidney-targeting nanoformulation emerges as a promising solution to the current clinical challenges by pro ...

Caco-2 cells = experiment: TER measurement of Caco-2 monolayers after CP treatment; assay type: cell-based, human; conditions: Caco-2 monolayer, up to 3 days after administration
Procedure: In addition to protection against an acidic environment mimicking the stomach, chitosan has been reported to open tight junctions within the intestinal epithelium and increase bioavailability in vivo ([51]). […] TER was measured three days before treatment and again after administration of nanoparticles or free drug for up to 3 days.
TER measurements were performed using an EVOM2 Epithelial Voltohmmeter (World Precision Instruments, USA).

AMPK = experiment: Intestine-kidney in vitro Transwell model, phospho-AMPK ELISA; assay type: cell-based, mouse; conditions: mpkCCDc14 cells below Caco-2 cells on Transwell, after 12 hours, N ≥ 3
Procedure: To collect cysts grown in Matrigel, cysts were kept on ice for 1 h to liquidize the Matrigel and centrifuged at 400×g for 5 min to collect the cyst in the pellet. All standards and samples were measured on a Varioskan LUX microplate reader at a wavelength of 450 nm. The phospho-AMPK to total AMPK ratio was normalized to the PBS group and presented in percentage.

[3] = Biodistribution after oral gavage (ex vivo organ Cy7 fluorescence); conditions: 200 μL of 500 µM Cy7-labeled, 24 h, ex vivo imaging, N = 4
Procedure: All animal procedures followed NIH guidelines for the care and use of laboratory animals and were approved by the University of Southern California's Institutional Animal Care and Use Committee. […] Mice were euthanized 24 h postinjection and organs (e.g. brain, heart, lungs, liver, kidneys, spleen, intestines, and bladder) were excised, imaged ex vivo on an AMI HTX in vivo imaging system, and the fluorescence signal was quantified via Aura software (Spectral Instruments Imaging, Tucson, AZ, USA, n ≥ 4). The mean radiance (photons/s/cm^2/sr) for each organ was quantified as a region of interest, and % of total organ fluorescence was obtained by dividing the fluorescence level of each organ by the sum of all the organ regions. Background was subtracted from the PBS-treated group.

[4] = Kidney health in ADPKD mice (i-Stat Chem-8+ blood analysis); assay type: in vivo, mouse
Procedure: On the day of harvest, 90 µL of blood taken from the submandibular vein was analyzed using Chem-8+ cartridges for the i-Stat Handheld Blood Analyzer (Abbott, Chicago, IL, USA). Kidney health markers including measurements of plasma sodium (Na), potassium (K), chloride (Cl), ionized calcium (iCa), total carbon dioxide (tCO2), glucose (Glu), BUN/urea, creatinine (Crea), hematocrit (Hct), and hemoglobin (Hb) were evaluated.

[5] = oral every 3 days P30-P120, day of harvest

Compound: Cy7-DSPE-PEG2000-(KKEEE)3K [free amphiphilic monomers, unassembled kidney-targeting amphiphiles]
- critical micelle concentration [1]: ~1 µM

Compound: Cc1ccccc1C(=O)Nc1ccc(C(=O)N2CCCC(O)c3cc(Cl)ccc32)c(C)c1 (stereo not drawn) [tolvaptan]
- accumulation in the kidney after oral administration [2]: ~5.7%

- kidney accumulation (% of total organ fluorescence) [3]: ~4.5%
- Na ([4]; oral every 3 days P30-P120, blood from submandibular vein, day of harvest): 144.6 ± 1.6 mmol/L
- BUN/Urea [4, 5]: 22.8 ± 7.8 md/dL
- Cl [4, 5]: 113.0 ± 3.2 mmol/L
- Crea [4, 5]: <0.2 md/dL
- Glu [4, 5]: 220 ± 24.4 mg/dL
- Hb [4, 5]: 12.8 ± 0.9 g/dL
- Hct [4, 5]: 37.4 ± 3.0 PCV
- K [4, 5]: 5.9 ± 1.4 mmol/L
- iCa [4, 5]: 1.1 ± 0.2 mmol/L
- tCO2 [4, 5]: 23.1 ± 0.8 mmol/L
Compound: CN(C)C(=N)N=C(N)N [free metformin, metformin]
- change in TER (Caco-2 cells): no changes in TER
- phosphorylated AMPK to total AMPK (AMPK): 1.3 ± 0.4

— PMC11131023, “Oral delivery of nanomedicine for genetic kidney disease” (PNAS Nexus, 2024)
